Read-outs that look alike come from different tables or passages of the source.
Assays:
[1] = system: 3D7 P. falciparum gametocytes stage V; assay: P. falciparum mature gametocytes (stage V), luciferase viability; assay type: cell-based; conditions: 3D7 strain, 72 h, mean ± S.D. of one experiment, read-out: IC50, gametocytes of P. falciparum, Stage V
Experimental: The activity of compounds was assessed against young gametocytes (stages I/III) and against mature gametocytes (stage V). […] A volume of 100 μL of 3D7elo1-pfs16-CBG99 gametocytes of 3D7 P. falciparum at 0.5–1% parasitemia and 2% hematocrit were dispensed. […] Luciferase activity was used to determine gametocytes viability. A volume of 100 µL of culture medium was removed from each well to increase hematocrit; 70 µL of resuspended culture was transferred to a black 96-well plate; 70 µL of D-luciferin (1 mM in citrate buffer 0.1 M, pH 5.5) was added. Luminescence measurements were performed after 10 min with 500 ms integration time. The IC50 was extrapolated from nonlinear regression analysis of the concentration–response curve.

[2] = target: T1, human glutathione reductase (hGR) (Homo sapiens, UniProt P00390); assay: Inhibition of enzymatic activity of recombinant human glutathione reductase; assay type: biochemical; conditions: recombinant enzyme, 15 min preincubation; mean of one experiment; read-out: IC50, Human GR
T1 construct: made in house
T1 sequence (P00390 44-522): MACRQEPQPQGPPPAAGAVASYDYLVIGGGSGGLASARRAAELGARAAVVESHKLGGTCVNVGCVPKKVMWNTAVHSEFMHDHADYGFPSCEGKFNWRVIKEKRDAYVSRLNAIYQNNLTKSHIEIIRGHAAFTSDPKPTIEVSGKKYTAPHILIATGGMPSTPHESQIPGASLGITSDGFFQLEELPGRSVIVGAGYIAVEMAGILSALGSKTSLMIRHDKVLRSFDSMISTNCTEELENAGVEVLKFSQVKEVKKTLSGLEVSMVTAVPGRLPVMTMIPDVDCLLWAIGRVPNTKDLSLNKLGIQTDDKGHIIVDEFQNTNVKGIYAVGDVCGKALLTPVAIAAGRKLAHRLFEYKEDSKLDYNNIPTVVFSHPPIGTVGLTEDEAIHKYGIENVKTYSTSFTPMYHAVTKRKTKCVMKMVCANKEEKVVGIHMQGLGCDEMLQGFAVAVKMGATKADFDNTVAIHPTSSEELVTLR
Experimental: (§1) The codon-optimized sequence for PfTrxR [27, 28] was synthesized and subcloned into pET-15b (Genscript) and expressed and purified as for human glutathione reductase (hGR). Recombinant Schistosoma mansoni (S. mansoni) thioredoxin glutathione reductase (SmTGR), human TrxR (hTrxR), and hGR proteins were expressed and purified as described. TrxR and TGR enzyme inhibition assays were performed in triplicate at 25 °C in 0.1 M potassium phosphate (pH 7.4), 10 mM EDTA, 100 µM NADPH and 0.01% Tween-20. SmTGR (4 nM), hTrxR (4 nM), and PfTrxR (50 nM) were preincubated with the compounds for 15 min. The reaction was started with addition of an equal volume of 5,5′-dithiobis(2-nitrobenzoic acid) (6 mM) and NADPH (100 µM). The increase in A412 during the first 3 min was recorded. […]. The reactions were performed in triplicate. The IC50s were calculated in Prism version 5.01.

[3] = system: P. berghei sporozoites in Huh-7 cells; assay: P. berghei hepatic stages: infection of Huh-7 cells by luciferase-expressing sporozoites; assay type: cell-based
Experimental: Huh-7 cells at 1.0 × 10^4 per well were seeded in 96-well plates the day before drug treatment and infection. The culture medium was replaced by infection medium (culture medium supplemented with gentamicin (50 μg/mL) and amphotericin B (0.8 μg/mL)) containing the appropriate concentration of each compound for approximately 1 h prior to infection with sporozoites of firefly luciferase-expressing P. berghei, freshly obtained through the disruption of salivary glands of infected female Anopheles stephensi mosquitoes. An amount of the DMSO solvent equivalent to that present in the highest compound concentration was used as negative control. Sporozoite addition was followed by centrifugation at 1800× g for 5 min. and parasite infection load was measured 48 h after infection by using a bioluminescence assay (Biotium, Hayward, CA, USA). The effect of the compounds on the viability of Huh-7 cells was assessed by performing the AlamarBlue (Invitrogen, Waltham, MA, USA) assay according to the manufacturer’s protocol.

PfTrxR = target: T2, PfTrxR (Plasmodium falciparum, UniProt Q25861); assay: Inhibition of enzymatic activity of recombinant P. falciparum TrxR; assay type: biochemical
T2 construct: made in house
T2 sequence (Q25861 1-541): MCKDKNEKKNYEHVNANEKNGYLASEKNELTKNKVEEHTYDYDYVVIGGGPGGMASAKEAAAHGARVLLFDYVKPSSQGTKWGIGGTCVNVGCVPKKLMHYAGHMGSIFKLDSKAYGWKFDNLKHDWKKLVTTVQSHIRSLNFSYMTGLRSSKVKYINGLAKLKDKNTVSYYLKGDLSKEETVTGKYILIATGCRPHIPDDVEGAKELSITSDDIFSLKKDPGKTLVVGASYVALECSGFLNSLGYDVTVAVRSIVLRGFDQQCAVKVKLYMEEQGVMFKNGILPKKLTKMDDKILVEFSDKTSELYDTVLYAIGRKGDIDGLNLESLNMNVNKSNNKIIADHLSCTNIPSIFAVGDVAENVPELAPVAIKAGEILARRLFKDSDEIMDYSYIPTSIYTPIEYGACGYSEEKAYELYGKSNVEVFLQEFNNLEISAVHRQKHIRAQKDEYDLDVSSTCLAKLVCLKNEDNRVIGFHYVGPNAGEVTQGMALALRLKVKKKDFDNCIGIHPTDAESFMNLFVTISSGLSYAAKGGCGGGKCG
Experimental: as §1

[4] = target: T3, S. mansoni thioredoxin-glutathione reductase (SmTGR) (Schistosoma mansoni, UniProt Q962Y6); assay: Inhibition of enzymatic activity of recombinant S. mansoni thioredoxin glutathione reductase; assay type: biochemical; conditions: 15 min preincubation, mean of one experiment, read-out: IC50 for TrxRs, S. mansoni (Sec)
T3 construct: made in house
T3 sequence (Q962Y6 1-598): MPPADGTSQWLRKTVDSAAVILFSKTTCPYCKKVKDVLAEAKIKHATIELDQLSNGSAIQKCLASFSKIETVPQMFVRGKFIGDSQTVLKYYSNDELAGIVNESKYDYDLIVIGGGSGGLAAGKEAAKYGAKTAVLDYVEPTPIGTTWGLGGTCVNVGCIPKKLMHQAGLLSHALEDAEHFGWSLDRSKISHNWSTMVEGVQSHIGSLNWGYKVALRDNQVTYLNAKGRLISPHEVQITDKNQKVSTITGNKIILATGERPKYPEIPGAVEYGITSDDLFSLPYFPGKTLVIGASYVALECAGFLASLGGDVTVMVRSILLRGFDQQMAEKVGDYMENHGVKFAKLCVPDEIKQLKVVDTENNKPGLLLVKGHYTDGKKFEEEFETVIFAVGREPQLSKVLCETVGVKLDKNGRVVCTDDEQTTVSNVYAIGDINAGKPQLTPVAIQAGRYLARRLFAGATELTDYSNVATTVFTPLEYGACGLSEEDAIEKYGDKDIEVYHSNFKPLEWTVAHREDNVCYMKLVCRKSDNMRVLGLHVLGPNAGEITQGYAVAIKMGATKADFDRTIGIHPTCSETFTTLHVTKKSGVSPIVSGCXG
Experimental: as §1

Row | SMILES | IC50 ([1]; Plasmodium falciparum) [µM] | IC50 [2] [µM] | inhibition at 10 µM ([3]; Plasmodium berghei, Huh-7, 48 h, read-out: Sporozoites (Inhibition of Infection, %)) [%] | IC50 (PfTrxR) [µM] | IC50 [4] [µM] | IC50 [1] [µM] | inhibitory activity for the hepatic stages ([3]; up to 10 μM) | IC50 (PfTrxR; recombinant enzyme, 15 min preincubation, mean of one experiment, read-out: IC50 for TrxRs, P. falciparum (Cys)) [µM]
1 | CCN(CC)Cc1cc(Nc2ccnc3cc(Cl)ccc23)ccc1O [Amodiaquine (AQ), amodiaquine] | 23.6 ± 5 | > 66.7 | 71 | > 66.7 | 42 | – | – | –
2 | [Cl][Au].c1ccc(P(c2ccccc2)c2ccccc2)cc1 [[AuClPPh3]] | – | 0.00118 | – | – | 0.0005 | 15.2 ± 2.6 | no inhibitory activity | 0.0019
